# Values quoted from earlier work as cited in article PMC7467712, “Physical Mechanisms Governing Substituent Effects on Arene–Arene Interactions in a Protein Milieu” (The Journal of Physical Chemistry. B, 2020).
# Test system: Mus musculus AChE
# Design: method as in PMID 23984975
# Conditions: 95% confidence interval within parentheses, at least four replicates
row,Compound,IC50 [µM]
1,CCN(CC)CCNS(=O)(=O)Cc1ccc(Cl)cc1 [AL011],12
2,CCN(CC)CCNS(=O)(=O)Cc1ccccc1 [AL029],139
3,CCN(CC)CCNS(=O)(=O)Cc1ccc(F)cc1 [AL036],40
4,CCN(CC)CCNS(=O)(=O)Cc1ccc(C(F)(F)F)cc1 [AL037],12
5,CCN(CC)CCNS(=O)(=O)c1cccc(C(F)(F)F)c1 [AL040],22
6,CCN(CC)CCNS(=O)(=O)c1cccc(OC)c1 [AL041],7
